Measured values: patent publication US20110206608A1, “Pharmaceutical Composition Of A Radioiodinated Benzamide Derivative And Methods Of Making Same” (priority 2008, published 2011)
Entries after “also recorded” stand apart in the source; their conditions may differ. Like-named read-outs stand apart in the source and are kept apart here. Blank lines part the entries; values can stand above or below the compound they belong to.

Experiments:
B16F10 tumor = assay: Organ distribution and tumor accumulation in B16F10 tumor bearing mice; type: in vivo; conditions: for biodistribution (distribution properties): B16F10 tumor bearing mice, 1 hour and 24 hour after intravenous administration, FIG. 4
Method: FIG. 3 illustrates the biodistribution of ^131I-Cmpd B and ^131I-Cmpd BD in B16F10 bearing mice.
FIG. 4 illustrates the biodistribution of ^131I-Cmpd A, ^131I-Cmpd B, ^131I-Cmpd C, and ^131I-Cmpd D in B16F10 tumor bearing mice.
The organ distribution and tumor accumulation experiments were performed in B16F10 tumor bearing mice. At times indicated (1 hour and 24 hour) after intravenous administration of the substances, the animals were sacrificed, organs and tumors were removed, optionally dabbed dry, weighed, and measured for radioactive content in a calibrator with the corresponding isotope standard. The results are depicted as % of the injected dose/gm of tissue. FIG. 4 illustrates the biodistribution of ^131I-Cmpd A, ^131I-Cmpd B, ^131I-Cmpd C, and ^131I-Cmpd D in B16F10 tumor bearing mice.

SK-MEL-3 tumor = assay: Effect on SK-MEL-3 tumor growth in mice; type: in vivo; conditions: 68 mCi/m^2
Source text: FIG. 6 illustrates the effect of ^131I-Cmpd A (68 mCi/m^2) on SK-MEL-3 tumor growth at various dose levels.
FIG. 7 illustrates the effect of ^131I-Cmpd A (68 mCi/m^2) on SK-MEL-3 tumor growth in mice at various dose levels. […] (Please note that animals were euthanized if tumor volume was>1500 mm^3).
Effects of ^131I-Cmpd A (68 mCi/m^2) on SK-MEL-3 tumor growth were investigated in mice. Saline and dacarbazine were used as references for the study. In this experiment, different batches of mice were administered a dose of 68 mCi/m^2 of ^131I-Cmpd A once a day, twice a day, and thrice a day. The treatment lasted for 125 days. The mice were euthanized if tumor volume was greater than 1500 mm^3. The treated mice were closely monitored and sacrificed if any signs of approaching death were shown. Tumor change (length and width of tumor) was monitored every few days.

[1] = Stability in ^131I-labeling, Tl(TFA)3/TFA iodination (Example 6-A); type: physicochemical; conditions: for chemical stability during the radioiodination: Tl(TFA)3/TFA iodination; for Identified impurity (%) / RCP (%): after ^131I-labeling with 2.5 mCi Na^131I
Source text: Purpose: ^131I-labeling yield and stability were compared side-by-side for (Compound C, Compound D and Compound A) together with Compound B (with or without addition of Dioxolane).
Results: The T1(TFA)3/TFA iodination method could be used for ^131I-Compound C, ^131I-Compound D and Compound A. Different from Compound B, there was almost no degraded impurities occurred during the labeling (^131I-Compound C, ^131I-Compound D or Compound A) at a radioactivity dose level of 2.5 mCi.

melanin = melanin targeting / binding capacity in vitro and in vivo
[2] = Solubility at 3 mg/mL, dissolved in acetic acid, then PEG400/ethanol, then matrix, visual inspection (Example 7-B); type: physicochemical; conditions: 3% acetic acid, 30% PEG400, 2% ethanol, 6% ascorbic acid, 3% sodium gentisate, pH=3.6, RT
Method: The compounds were dissolved in acetic acid first, and then diluted with PEG400/ethanol; the solution was finally diluted in matrix into a final concentration of 3 mg/mL. The components of the matrix included 3% sodium gentisate (w/v) and 6% ascorbic acid (w/v) (pH=3.6). The prepared sample solution was kept at RT and examined by visual inspection.

[3] = Solubility over one week storage at RT, visual inspection and HPLC (Example 7-C); type: physicochemical; conditions: for HPLC measured conc. at 7 days: 3 mg/mL prepared, with 3% acetic acid; for aqueous solubility: comparison among the tested compounds
Method: Compound C and Compound D were dissolved in acetic acid first, and then with PEG400/ethanol; the solution was finally diluted in matrix into a final concentration of 3 mg/mL. The matrix included 3% sodium gentisate (w/v) and 6% ascorbic acid (w/v) (pH=3.6). The prepared sample solution was kept at RT and examined by visual inspection. The concentration of the tested compounds in the solution or in the supernatant was analyzed by HPLC.

[4] = Tumor uptake and retention of ^123I-Compound B in B16 melanoma bearing mice; type: in vivo; conditions: mouse
Source text: Tumor uptake and retention of ^123I-Compound B in B16 melanoma bearing mice (% ID/g) was as shown in Table B. Those studies were done using the method disclosed in Eisenhut et al., J. Med. Chem. 2000, 43(21), 3913-22.

[5] = Stability post labelling in radiolysis protecting buffer, 3 days storage at RT (Example 6-B); type: physicochemical; conditions: for Free ^131I (%) / Identified impurity (%) / RCP (%): RT, radiolysis protecting buffer, ~11 mCi/mL
B16 melanoma = B16 melanoma bearing C57BL/J1 mouse, cited from earlier work
[6] = protected with 10 μL of Dioxolane

Structure (SMILES): CCN(CC)CCNC(=O)c1cc([131I])c(NC(=O)c2ccc(F)cc2)cc1OC [Compound A, N-(2-(diethylamino)ethyl)-4-(4-fluoro-benzoylamino)-5-iodo-2-methoxybenzamide]
biodistribution (distribution properties) (B16F10 tumor): desirable distribution properties | tumor uptake and retention (B16F10 tumor; tumor bearing animal models): significant high tumor uptake and prolonged retention | tumor growth (tumor change) (SK-MEL-3 tumor; SK-MEL-3 tumor in mice, FIG. 6): reducing the tumor growth | survival of the mice (SK-MEL-3 tumor; SK-MEL-3 tumor in mice, FIG. 7): increasing survival of the mice | response to treatment (SK-MEL-3 tumor; human melanoma mouse xenograft model): complete response (CR) has been observed | chemical stability during the radioiodination [1]: stable

Structure (SMILES): CCN(CC)CCNC(=O)c1cc(I)c(NC(=O)c2ccc3c(c2)OCO3)cc1OC [Compound B, benzo[1,3]dioxole-5-carboxylic acid [4-(2-diethylamino-ethylcarbamoyl)-2-iodo-5-methoxyphenyl]amide]
tissue uptake at 1 h ([4]; 1 h): 14.8 %ID/g | tissue uptake at 5 h ([4]; 5 h): 22.7 %ID/g | tissue uptake at 48 h ([4]; 48 h): 16.6 %ID/g | biodistribution (distribution properties) (B16F10 tumor): desirable distribution properties | melanin targeting capacity (melanin): found to have melanin targeting capacity both in vitro and in vivo | chemical stability during the radioiodination [1]: poor chemical stability | Identified impurity (%) ([1]; Tl(TFA)3/TFA): 5.5% | RCP (%) ([1]; Tl(TFA)3/TFA): 90.3% | Identified impurity (%) [1, 6]: 2.3% | RCP (%) [1, 6]: 94.0% | Free ^131I (%) ([5]; 0 day): 0.1% | Identified impurity (%) ([5]; 0 day): 10.3% | RCP (%) ([5]; 0 day): 89.5% | Free ^131I (%) ([5]; 3 day): 2.4% | Identified impurity (%) ([5]; 3 day): 8.8% | RCP (%) ([5]; 3 day): 88.6% | stability during the 3 days storage at RT post labeling ([5]; diluted in radiolysis protecting solution, Compound B vs Compound A): no significant difference in stability

Structure (SMILES): CCN(CC)CCNC(=O)c1ccc([123I])cc1 [^123I-BZA]
tumor wash-out (% ID/g) (B16 melanoma; 1 h): 6.8 % ID/g | tumor wash-out (% ID/g) (B16 melanoma; 24 h): 0.8 % ID/g | tumor wash-out (% ID/g) (B16 melanoma; 72 h): 0.3 % ID/g

Continued, in another order:

biodistribution (distribution properties) (B16F10 tumor): desirable distribution properties | chemical stability during the radioiodination [1]: stable | Identified impurity (%) ([1]; Tl(TFA)3/TFA): 0% | RCP (%) ([1]; Tl(TFA)3/TFA): 97.1% | Solution inspection [2]: Clear solution | HPLC measured conc. at 7 days ([3]; RT, concentration in the supernatant): 0.23 mg/mL | Solution inspection at 7 days ([3]; 3 mg/mL, 3% acetic acid, 30% PEG400, 2% ethanol, 6% ascorbic acid, 3% sodium gentisate, RT): Precipitation**
Structure (SMILES): CCN(CC)CCNC(=O)c1cc(I)c(NC(=O)c2ccc(Cl)cc2)cc1OC [Compound C, 4-(4-chlorobenzoylamino)-N-(2-(diethylamino)ethyl)-5-iodo-2-methoxybenzamide]
melanin targeting capacity (melanin): found to have melanin targeting capacity both in vitro and in vivo | aqueous solubility [3]: poor aqueous solubility; also recorded: Compound A>Compound D>>Compound C

biodistribution (distribution properties) (B16F10 tumor): desirable distribution properties | chemical stability during the radioiodination [1]: stable | Identified impurity (%) ([1]; Tl(TFA)3/TFA): 0% | RCP (%) ([1]; Tl(TFA)3/TFA): ~100% | Solution inspection [2]: Clear solution | HPLC measured conc. at 7 days ([3]; RT): 2.89 mg/mL
Structure (SMILES): CCN(CC)CCNC(=O)c1cc(I)c(NC(=O)c2ccc(OC)cc2)cc1OC [Compound D, N-(2-diethylamino-ethyl)-5-iodo-2-methoxy-4-(4-methyoxybenzoylamino)benzamide]
melanin targeting capacity (melanin): found to have melanin targeting capacity both in vitro and in vivo | aqueous solubility [3]: poor aqueous solubility; also recorded: Compound A>Compound D>>Compound C
